Data reported in patent publication US10357036B2, “Compounds for controlling arthropods” (priority 2015, dated 2019).

Tests used:
Boophilus microplus = Boophilus microplus injection test; assay type: in vivo; settings: 20 μg/animal; assessed after 7 days
Method: (§1) • Solvent: dimethyl sulfoxide
1 μl of the active ingredient solution is injected into the abdomen of 5 engorged adult female cattle ticks (Boophilus microplus). The animals are transferred into dishes and kept in a climate-controlled room.

Ctenocephalides felis = Ctenocephalides felis oral test; assay type: in vivo; settings: 100 ppm in citrated cattle blood; after 2 days
Method: • Solvent: Dimethyl Sulfoxide
To produce a suitable active ingredient formulation, 10 mg of active ingredient are mixed with 0.5 ml of dimethyl sulfoxide. Dilution with citrated cattle blood gives the desired concentration.
About 20 unfed adult cat fleas (Ctenocephalides fells) are placed into a chamber which is closed at the top and bottom with gauze. A metal cylinder whose bottom end is closed with parafilm is placed onto the chamber. The cylinder contains the blood/active ingredient formulation, which can be imbibed by the fleas through the parafilm membrane.

Musca domestica = Musca domestica test; assay type: in vivo; settings: 100 ppm; adult houseflies; after 2 days
Method: as §1
To produce a suitable active ingredient formulation, 10 mg of active ingredient are mixed with 0.5 ml of dimethyl sulfoxide, and the concentrate is diluted with water to the desired concentration.
Vessels containing a sponge treated with sugar solution and the active ingredient formulation of the desired concentration are populated with 10 adult houseflies (Musca domestica).

Spodoptera frugiperda = Spodoptera frugiperda spray test; assay type: in vivo; settings: 100 g/ha; after 7 days
Tetranychus urticae = Tetranychus urticae spray test, OP-resistant (bean leaf discs); assay type: in vivo; settings: 100 g/ha; after 6 days
Method: After 6 days, the efficacy in % is determined.

Phaedon cochleariae = Phaedon cochleariae spray test; settings: 100 g/ha; after 7 days
Rhipicephalus sanguineus = Rhipicephalus sanguineus in vitro contact test with adult brown dog ticks; assay type: in vivo; settings: application rate 5 μg/cm^2 (=500 g/ha); after 48 h; dead or moribund ticks
Method: For the coating of the test tubes, 9 mg of active ingredient are first dissolved in 1 ml of acetone p.a. and then diluted to the desired concentration with acetone p.a. 250 μl of the solution are distributed homogeneously on the inner walls and the base of a 25 ml glass tube by turning and rocking on an orbital shaker (rocking rotation at 30 rpm for 2 h). With 900 ppm of active ingredient solution and internal surface area 44.7 cm^2, given homogeneous distribution, an area-based dose of 5 μg/cm^2 is achieved.
After the solvent has evaporated off, the tubes are populated with 5-10 adult dog ticks (Rhipicephalus sanguineus), sealed with a perforated plastic lid and incubated in a horizontal position in the dark at room temperature and ambient humidity. After 48 h, efficacy is determined. To this end, the ticks are knocked to the base of the tube and incubated on a hotplate at 45-50° C. for not more than 5 min. Ticks which remain motionless on the base or move in such an uncoordinated manner that they are unable to deliberately avoid the heat by climbing upwards are considered to be dead or moribund.
An efficacy of 100% means that all the ticks were dead or moribund. 0% efficacy means that none of the ticks were harmed.

CC(=O)NCc1cccc(-c2cnn(-c3c(Cl)cc(C(F)(C(F)(F)F)C(F)(F)F)cc3C(F)F)c2)c1 [Ia-02]
100%: efficacy (laying of fertile eggs) (Boophilus microplus) | efficacy (rate of extermination) (Ctenocephalides felis) | efficacy (rate of extermination) (Musca domestica) | efficacy (Spodoptera frugiperda) | efficacy (Tetranychus urticae) | efficacy (Phaedon cochleariae)

CC(=O)NCc1cccc(-c2cnn(-c3c(Cl)cc(C(F)(C(F)(F)F)C(F)(F)F)cc3C(F)(F)F)c2)c1F [Ia-151]
100%: efficacy (laying of fertile eggs) (Boophilus microplus) | efficacy (rate of extermination) (Ctenocephalides felis) | efficacy (rate of extermination) (Musca domestica) | efficacy (Spodoptera frugiperda) | efficacy (Phaedon cochleariae)

CC(=O)NCc1cc(-c2cnn(-c3c(Cl)cc(C(F)(C(F)(F)F)C(F)(F)F)cc3Cl)c2)ccc1C(F)(F)F [Ia-74]
100%: efficacy (laying of fertile eggs) (Boophilus microplus) | efficacy (rate of extermination) (Ctenocephalides felis) | efficacy (rate of extermination) (Musca domestica) | efficacy (Spodoptera frugiperda) | efficacy (Tetranychus urticae) | efficacy (Phaedon cochleariae)

CC(C)CC(=O)NCc1cc(-c2cnn(-c3c(Cl)cc(C(F)(C(F)(F)F)C(F)(F)F)cc3C(F)F)c2)ccc1F [Ia-61]
80%: efficacy (rate of extermination) (Musca domestica)
70%: efficacy (Tetranychus urticae)
100%: efficacy (laying of fertile eggs) (Boophilus microplus) | efficacy (rate of extermination) (Ctenocephalides felis) | efficacy (Spodoptera frugiperda)

CCC(=O)NCc1cc(-c2cnn(-c3c(Cl)cc(C(F)(C(F)(F)F)C(F)(F)F)cc3OC(F)(F)F)c2)cnc1Cl [Ia-133]
100%: efficacy (laying of fertile eggs) (Boophilus microplus) | efficacy (rate of extermination) (Ctenocephalides felis) | efficacy (rate of extermination) (Musca domestica) | efficacy (Spodoptera frugiperda) | efficacy (Phaedon cochleariae)

CC(=O)NCc1cc(-c2cnn(-c3c(Cl)cc(S(=O)(=O)C(F)(F)F)cc3Cl)c2)ccc1Cl [Ia-88]
100%: efficacy (laying of fertile eggs) (Boophilus microplus) | efficacy (rate of extermination) (Ctenocephalides felis) | efficacy (Tetranychus urticae) | efficacy (Phaedon cochleariae)
83%: efficacy (Spodoptera frugiperda)

N#Cc1cc(C(F)(C(F)(F)F)C(F)(F)F)cc(Cl)c1-n1cc(-c2cccc(CNC(=O)C3CC3)c2)cn1 [Ia-98]
100%: efficacy (laying of fertile eggs) (Boophilus microplus) | efficacy (rate of extermination) (Ctenocephalides felis) | efficacy (Phaedon cochleariae)
90%: efficacy (rate of extermination) (Musca domestica) | efficacy (Tetranychus urticae)

CCC(=O)NC1CCc2ccc(-c3cnn(-c4c(Cl)cc(C(F)(C(F)(F)F)C(F)(F)F)cc4C(F)(F)F)c3)cc21 (centres unmarked) [I-Tc-02]
80%: efficacy (Rhipicephalus sanguineus)
100%: efficacy (laying of fertile eggs) (Boophilus microplus) | efficacy (rate of extermination) (Ctenocephalides felis) | efficacy (Spodoptera frugiperda)

CN(Cc1cc(-c2cnn(-c3c(Cl)cc(C(F)(C(F)(F)F)C(F)(F)F)cc3Cl)c2)ccc1Cl)S(C)(=O)=O [Ic-04]
100%: efficacy (rate of extermination) (Ctenocephalides felis) | efficacy (rate of extermination) (Musca domestica) | efficacy (Spodoptera frugiperda) | efficacy (Tetranychus urticae) | efficacy (Phaedon cochleariae)

O=C(NCc1cc(-c2cnn(-c3c(Cl)cc(C(F)(C(F)(F)F)C(F)(F)F)cc3Cl)c2)cnc1Cl)C1CC1 [Ia-18]
100%: efficacy (laying of fertile eggs) (Boophilus microplus) | efficacy (rate of extermination) (Ctenocephalides felis) | efficacy (rate of extermination) (Musca domestica) | efficacy (Spodoptera frugiperda) | efficacy (Phaedon cochleariae)

CC(=O)NCc1cccc(-c2cnn(-c3c(Cl)cc(C(F)(C(F)(F)F)C(F)(F)F)cc3C(F)F)c2)c1F [Ia-144]
100%: efficacy (laying of fertile eggs) (Boophilus microplus) | efficacy (rate of extermination) (Ctenocephalides felis) | efficacy (rate of extermination) (Musca domestica) | efficacy (Spodoptera frugiperda) | efficacy (Phaedon cochleariae)
90%: efficacy (Tetranychus urticae)

CS(=O)(=O)NCc1cc(-c2cnn(-c3c(Cl)cc(C(F)(C(F)(F)F)C(F)(F)F)cc3Cl)c2)ccc1Cl [Ic-01]
90%: efficacy (rate of extermination) (Musca domestica)
100%: efficacy (laying of fertile eggs) (Boophilus microplus) | efficacy (rate of extermination) (Ctenocephalides felis) | efficacy (Spodoptera frugiperda) | efficacy (Tetranychus urticae) | efficacy (Phaedon cochleariae)

CC(=O)N(C)Cc1cc(-c2cnn(-c3c(Cl)cc(C(F)(C(F)(F)F)C(F)(F)F)cc3Cl)c2)ccc1C(F)(F)F [Ia-77]
100%: efficacy (laying of fertile eggs) (Boophilus microplus) | efficacy (rate of extermination) (Ctenocephalides felis) | efficacy (Spodoptera frugiperda) | efficacy (Phaedon cochleariae)

CCC(=O)NCc1c(F)ccc(-c2cnn(-c3c(Cl)cc(C(F)(C(F)(F)F)C(F)(F)F)cc3Cl)c2)c1F [Ia-148]
100%: efficacy (laying of fertile eggs) (Boophilus microplus) | efficacy (rate of extermination) (Ctenocephalides felis) | efficacy (rate of extermination) (Musca domestica) | efficacy (Spodoptera frugiperda) | efficacy (Phaedon cochleariae)

O=C(CC(F)(F)F)NCc1cc(-c2cnn(-c3c(Cl)cc(C(F)(C(F)(F)F)C(F)(F)F)cc3Cl)c2)ccc1Cl [Ia-35]
100%: efficacy (laying of fertile eggs) (Boophilus microplus) | efficacy (rate of extermination) (Ctenocephalides felis) | efficacy (rate of extermination) (Musca domestica) | efficacy (Spodoptera frugiperda)

CSc1cc(C(F)(C(F)(F)F)C(F)(F)F)cc(Cl)c1-n1cc(-c2ccc(F)c(CNC(=O)C3CC3)c2)cn1 [Ia-12]
100%: efficacy (laying of fertile eggs) (Boophilus microplus) | efficacy (rate of extermination) (Ctenocephalides felis) | efficacy (rate of extermination) (Musca domestica) | efficacy (Tetranychus urticae) | efficacy (Phaedon cochleariae)
83%: efficacy (Spodoptera frugiperda)

CCC(=O)NCc1cc(-c2cnn(-c3c(Cl)cc(C4(C(F)(F)F)CC4)cc3Cl)c2)ccc1Cl [Ia-128]
100%: efficacy (rate of extermination) (Ctenocephalides felis) | efficacy (rate of extermination) (Musca domestica) | efficacy (Spodoptera frugiperda) | efficacy (Phaedon cochleariae)

O=C(NCc1cccc(-c2cnn(-c3c(Cl)cc(C(F)(C(F)(F)F)C(F)(F)F)cc3Cl)c2)c1)C1CC1 [Ia-41]
100%: efficacy (laying of fertile eggs) (Boophilus microplus) | efficacy (rate of extermination) (Ctenocephalides felis) | efficacy (rate of extermination) (Musca domestica) | efficacy (Phaedon cochleariae)

CCCCC(=O)NCc1cc(-c2cnn(-c3c(Cl)cc(C(F)(C(F)(F)F)C(F)(F)F)cc3C(F)F)c2)ccc1F [Ia-59]
100%: efficacy (laying of fertile eggs) (Boophilus microplus) | efficacy (rate of extermination) (Ctenocephalides felis) | efficacy (rate of extermination) (Musca domestica) | efficacy (Spodoptera frugiperda) | efficacy (Tetranychus urticae) | efficacy (Phaedon cochleariae)

CCC(=O)NCc1cc(-c2cnn(-c3c(Cl)cc(C(F)(C(F)(F)F)C(F)(F)F)cc3Cl)c2)ccc1C(F)(F)F [Ia-72]
100%: efficacy (laying of fertile eggs) (Boophilus microplus) | efficacy (rate of extermination) (Ctenocephalides felis) | efficacy (rate of extermination) (Musca domestica) | efficacy (Spodoptera frugiperda) | efficacy (Tetranychus urticae) | efficacy (Phaedon cochleariae)

CCC(=O)NCc1cc(-c2cnn(-c3c(Cl)cc(C(F)(C(F)(F)F)C(F)(F)F)cc3Cl)c2)cnc1Cl [Ia-132]
100%: efficacy (laying of fertile eggs) (Boophilus microplus) | efficacy (rate of extermination) (Ctenocephalides felis) | efficacy (rate of extermination) (Musca domestica) | efficacy (Spodoptera frugiperda) | efficacy (Phaedon cochleariae)

CCC(=O)NCc1cccc(-c2cnn(-c3c(Cl)cc(C(F)(C(F)(F)F)C(F)(F)F)cc3C(F)(F)F)c2)c1F [Ia-150]
90%: efficacy (Tetranychus urticae)
100%: efficacy (laying of fertile eggs) (Boophilus microplus) | efficacy (rate of extermination) (Ctenocephalides felis) | efficacy (rate of extermination) (Musca domestica) | efficacy (Spodoptera frugiperda) | efficacy (Phaedon cochleariae)

CC(=O)NCc1cc(-c2cnn(-c3c(Cl)cc(C(F)(C(F)(F)F)C(F)(F)F)cc3Cl)c2)ccc1Br [Ia-164]
100%: efficacy (Spodoptera frugiperda) | efficacy (Tetranychus urticae) | efficacy (Phaedon cochleariae)
